Where two headings read alike, the source gives them in different places.
What was measured:
Experiment in all cases: Anti-bacterial test, minimum inhibitory concentration on agar
Format in all cases: cell-based
[1] = tested on: Acinetobacter calcoaceticus IFO 13006
Description: (§1) The compound (I) thus obtained is useful as a drug, being active against certain gram-positive and gram-negative bacteria. By way of example, the compounds are active against the following micro-organisms.
(§2) The media and compounds employed in the anti-bacterial test are as follows: • Media: • TSA = Trypticase soy agar • [Baltimore Biologicals (U.S.A.)] • B-TSA = Blood trypticase soy agar • Compounds: • Compound A = Sodium 3-[2-(2-amino-4-thiazolyl)-2-methoxyiminoacetamido]-2-oxo-azetidine-1-sulphonate • Compound B = Sodium 3-[D(-)-N-(4-ethyl-2,3-dioxo-1-piperazinocarbonyl)-phenyl-glycin- amido]-2-oxoazetidine-1-sulphonate • Compound C = Sodium 3-[D(-)-N-(4-ethyl-2,3-dioxo-1-piperazinocarbonyl)phenylglycinamido]-3-methoxy-2-oxoazetidine-1-sulphonate • Compound D = Sodium 3-[2-(4-ethyl-2,3-dioxo-1-piperazinocarboxamido)-2-(2-amino-4-thiazolyl)-acetamido]-2-oxoazetidine-1-sulphonate • Compound E = Sodium 3-[DL-2-(4-ethyl-2,3-dioxo-1-piperazinocarboxamido)-2-thienylacetamido]-2-oxoazetidine-1-sulphonate • Compound F = Sodium 3-[D-2-(4-ethyl-2,3-dioxo-1-piperazinocarboxamido)-2-thienylacetamido]-2-oxoazetidine-1-sulphonate • Compound G = Sodium 3-[D-2-(4-n-octyl-2,3-dioxo-1-piperazinocarboxamido)-2-phenylacetamido]-2-oxoazetidine-1-sulphonate • Compound H = Sodium 3-[2-(4-n-octyl-2,3-dioxo-1-piperazinocarboxamido)-2-(2-amino-4-thiazolyl)-acetamido]-2-oxoazetidine-1-sulphonate • Compound I = Sodium 3-[D-2-[(2-oxo-3-furfurylideneaminoimidazolidin-1-yl)-carboxamido]-2-phenylacetamido]-2-oxoazetidine-1-sulphonate • Compound J = Sodium 3-[2-(4-n-octyl-2,3-dioxo-1-piperazinocarboxamido)-2-thienylacetamido]-2-oxoazetidine-1-sulphonate • Compound K = Sodium 3-[D-2-[[2-oxo-3-(thiophen-2-aidoimino)-imidazolidin-1-yl]-carboxamido]-2-phenylacetamido]-2-oxoazetidine-1-sulphonate • Compound L = Sodium 3-[2-[(2-oxo-3-furfurylideneaminoimidazolidin-1-yl)-carboxamido]-2-thienylacetamido]-2-oxoazetidine-1-sulphonate

[2] = tested on: Bordetella bronchiseptica Sagami; settings: for MIC: read-out: Minimum inhibitory concentration
Description: as §1, §2

Candida albicans TA = settings: for MIC: read-out: Minimum inhibitory concentration
Description: as §1, §2

[3] = tested on: Citrobacter freundii IFO 12681
Description: as §1, §2

[4] = tested on: Corynebacterium diphtheriae Toronto; settings: for MIC: read-out: Minimum inhibitory concentration
Description: as §1, §2

[5] = tested on: Enterobacter cloacae IFO 12937
Description: as §1, §2

[6] = tested on: Escherichia coli NIHJ JC—2; settings: for MIC: read-out: Minimum inhibitory concentration
Description: as §1, §2

Escherichia coli O—111 = settings: medium TSA
Description: as §1, §2

Escherichia coli T-7 = settings: for MIC: T7, medium TSA
Description: as §1, §2

Klebsiella pneumoniae DT = settings: for MIC: read-out: Minimum inhibitory concentration
Description: as §1, §2

[7] = tested on: Proteus mirabilis IFO 3849
Description: as §1, §2

[8] = tested on: Proteus morganii IFO 3168; settings: for MIC: Morganella morganii
Description: as §1, §2

[9] = tested on: Proteus vulgaris IFO 3988
Description: as §1, §2

[10] = tested on: Pseudomonas aeruginosa IFO 3455
Description: as §1, §2

[11] = tested on: Pseudomonas aeruginosa U 31
Description: as §1, §2

[12] = tested on: Serratia marcescens IFO 12648
Description: as §1, §2

[13] = tested on: Staphylococcus aureus 1840
Description: as §1, §2

[14] = tested on: Staphylococcus aureus 308A—1; settings: for MIC: read-out: Minimum inhibitory concentration
Description: as §1, §2

[15] = tested on: Staphylococcus aureus FDA209P; settings: for MIC: Staphylococcus aureus, FDA209P, read-out: Minimum inhibitory concentration
Description: as §1, §2

[16] = tested on: Streptococcus faecium IFO 3128; settings: for MIC: Enterococcus faecium
Description: as §1, §2

[17] = tested on: Streptococcus mitis America; settings: for MIC: read-out: Minimum inhibitory concentration
Description: as §1, §2

[18] = tested on: Streptococcus pneumoniae Type I; settings: for MIC: read-out: Minimum inhibitory concentration
Description: as §1, §2

[19] = tested on: Streptococcus pyogenes E—14; settings: for MIC: read-out: Minimum inhibitory concentration
Description: as §1, §2

[20] = tested on: Streptococcus pyogenes S—8; settings: for MIC: read-out: Minimum inhibitory concentration
Description: as §1, §2

[21] = IFO13006, Acinetobacter calcoaceticus IFO 13006, medium TSA, read-out: Minimum inhibitory concentration
[22] = Bordetella bronchiseptica Sagami, medium B—TSA
[23] = Candida albicans TA, medium TSA
[24] = IFO12681, Citrobacter freundii IFO 12681, medium TSA, read-out: Minimum inhibitory concentration
[25] = Corynebacterium diphtheriae Toronto, medium B—TSA
[26] = IFO12937, Enterobacter cloacae IFO 12937, medium TSA, read-out: Minimum inhibitory concentration
[27] = Escherichia coli NIHJ JC—2, medium TSA
[28] = Klebsiella pneumoniae DT, medium TSA
[29] = IFO3849, Proteus mirabilis IFO 3849, medium TSA, read-out: Minimum inhibitory concentration
[30] = IFO3168, Proteus morganii IFO 3168, medium TSA, read-out: Minimum inhibitory concentration
[31] = IFO3988, Proteus vulgaris IFO 3988, medium TSA, read-out: Minimum inhibitory concentration
[32] = IFO3455, Pseudomonas aeruginosa IFO 3455, medium TSA, read-out: Minimum inhibitory concentration
[33] = U31, Pseudomonas aeruginosa U 31, medium TSA, read-out: Minimum inhibitory concentration
[34] = IFO12648, Serratia marcescens IFO 12648, medium TSA, read-out: Minimum inhibitory concentration
[35] = Staphylococcus aureus 1840, medium TSA, read-out: Minimum inhibitory concentration
[36] = Staphylococcus aureus 308A—1, medium TSA
[37] = Staphylococcus aureus FDA209P, medium B—TSA
[38] = Staphylococcus aureus FDA209P, medium TSA
[39] = IFO3128, Streptococcus faecium IFO 3128, medium B—TSA, read-out: Minimum inhibitory concentration
[40] = Streptococcus mitis America, medium B—TSA
[41] = Streptococcus pneumoniae Type I, medium B—TSA
[42] = Streptococcus pyogenes E—14, medium B—TSA
[43] = Streptococcus pyogenes S—8, medium B—TSA

## CCN1CCN(C(=O)N[C@@H](C(=O)NC2CN(S(=O)(=O)O)C2=O)c2ccccc2)C(=O)C1=O (single isomer, unassigned) [Compound B, Sodium 3-[D(-)-N-(4-ethyl-2,3-dioxo-1-piperazinocarbonyl)-phenyl-glycin-amido]-2-oxoazetidine-1-sulphonate]
[1]; [21]
  MIC: 25 µg/mL
[2]; [22]
  MIC: > 100 µg/mL
Candida albicans TA; [23]
  MIC: > 100 µg/mL
[3]; [24]
  MIC: 6.25 µg/mL
[4]; [25]
  MIC: 3.13 µg/mL
[5]; [26]
  MIC: 50 µg/mL
[6]; [27]
  MIC: 1.56 µg/mL
Escherichia coli O—111
  MIC: 0.2 µg/mL
Escherichia coli T-7
  MIC: > 100 µg/mL
Klebsiella pneumoniae DT; [28]
  MIC: 0.2 µg/mL
[7]; [29]
  MIC: 0.78 µg/mL
[8]; [30]
  MIC: 25 µg/mL
[9]; [31]
  MIC: 0.1 µg/mL
[10]; [32]
  MIC: 1.56 µg/mL
[11]; [33]
  MIC: > 100 µg/mL
[12]; [34]
  MIC: 3.13 µg/mL
[13]; [35]
  MIC: 25 µg/mL
[14]; [36]
  MIC: 3.13 µg/mL
[15]; [37]
  MIC: 6.25 µg/mL
[15]; [38]
  MIC: 6.25 µg/mL
[16]; [39]
  MIC: > 100 µg/mL
[17]; [40]
  MIC: 25 µg/mL
[18]; [41]
  MIC: 6.25 µg/mL
[19]; [42]
  MIC: 3.13 µg/mL
[20]; [43]
  MIC: 6.25 µg/mL

## CON=C(C(=O)NC1CN(S(=O)(=O)[O-])C1=O)c1csc(N)n1.[Na+] (stereo not shown) [Compound A, Sodium 3-[2-(2-amino-4-thiazolyl)-2-methoxyiminoacetamido]-2-oxo-azetidine-1-sulphonate]
[1]; Acinetobacter calcoaceticus, IFO13006, read-out: Minimum inhibitory concentration
  MIC: 6.25 µg/mL
[2]; Bordetella bronchiseptica
  MIC: 100 µg/mL
Candida albicans TA; Candida albicans
  MIC: > 100 µg/mL
[3]; Citrobacter freundii, IFO12681, read-out: Minimum inhibitory concentration
  MIC: 1.56 µg/mL
[4]; Corynebacterium diphtheriae
  MIC: 1.56 µg/mL
[5]; Enterobacter cloacae, IFO12937, read-out: Minimum inhibitory concentration
  MIC: > 100 µg/mL
[6]; Escherichia coli
  MIC: 0.78 µg/mL
Escherichia coli O—111
  MIC: 0.39 µg/mL
Escherichia coli T-7
  MIC: > 100 µg/mL
Klebsiella pneumoniae DT; Klebsiella pneumoniae
  MIC: 0.78 µg/mL
[7]; Proteus mirabilis, IFO3849, read-out: Minimum inhibitory concentration
  MIC: 6.25 µg/mL
[8]; IFO3168, read-out: Minimum inhibitory concentration
  MIC: 25 µg/mL
[9]; Proteus vulgaris, IFO3988, read-out: Minimum inhibitory concentration
  MIC: 1.56 µg/mL
[10]; Pseudomonas aeruginosa, IFO3455, read-out: Minimum inhibitory concentration
  MIC: 6.25 µg/mL
[11]; Pseudomonas aeruginosa, U31, read-out: Minimum inhibitory concentration
  MIC: > 100 µg/mL
[12]; Serratia marcescens, IFO12648, read-out: Minimum inhibitory concentration
  MIC: 12.5 µg/mL
[13]; Staphylococcus aureus, 1840, read-out: Minimum inhibitory concentration
  MIC: 100 µg/mL
[14]; Staphylococcus aureus
  MIC: 25 µg/mL
[15]; [37]
  Minimum inhibitory concentration: 50 µg/mL
[15]
  MIC: 50 µg/mL
[16]; IFO3128, read-out: Minimum inhibitory concentration
  MIC: > 100 µg/mL
[17]; Streptococcus mitis
  MIC: 25 µg/mL
[18]; Streptococcus pneumoniae
  MIC: 12.5 µg/mL
[19]; Streptococcus pyogenes
  MIC: 3.13 µg/mL
[20]; Streptococcus pyogenes
  MIC: 3.13 µg/mL

## CCN1CCN(C(=O)NC(C(=O)NC2CN(S(=O)(=O)O)C2=O)c2csc(N)n2)C(=O)C1=O (stereo not shown) [Compound D, Sodium 3-[2-(4-ethyl-2,3-dioxo-1-piperazinocarboxamido)-2-(2-amino-4-thiazolyl)-acetamido]-2-oxoazetidine-1-sulphonate]
[1]; [21]
  MIC: 50 µg/mL
[2]; [22]
  MIC: > 100 µg/mL
Candida albicans TA; [23]
  MIC: > 100 µg/mL
[3]; [24]
  MIC: 1.56 µg/mL
[4]; [25]
  MIC: 3.13 µg/mL
[5]; [26]
  MIC: 25 µg/mL
[6]; [27]
  MIC: 0.39 µg/mL
Escherichia coli O—111
  MIC: 0.1 µg/mL
Escherichia coli T-7
  MIC: > 100 µg/mL
Klebsiella pneumoniae DT; [28]
  MIC: 0.2 µg/mL
[7]; [29]
  MIC: 25 µg/mL
[8]; [30]
  MIC: 12.5 µg/mL
[9]; [31]
  MIC: 0.1 µg/mL
[10]; [32]
  MIC: 3.13 µg/mL
[11]; [33]
  MIC: > 100 µg/mL
[12]; [34]
  MIC: 0.78 µg/mL
[13]; [35]
  MIC: 25 µg/mL
[14]; [36]
  MIC: 6.25 µg/mL
[15]; [37]
  MIC: 12.5 µg/mL
[15]; [38]
  MIC: 12.5 µg/mL
[16]; [39]
  MIC: > 100 µg/mL
[17]; [40]
  MIC: 25 µg/mL
[18]; [41]
  MIC: 6.25 µg/mL
[19]; [42]
  MIC: 3.13 µg/mL
[20]; [43]
  MIC: 3.13 µg/mL

## CCN1CCN(C(=O)N[C@H](C(=O)NC2CN(S(=O)(=O)[O-])C2=O)c2cccs2)C(=O)C1=O.[Na+] (stereo partly drawn) [Compound F, Sodium 3-[D-2-(4-ethyl-2,3-dioxo-1-piperazinocarboxamido)-2-thienylacetamido]-2-oxoazetidine-1-sulphonate]
[1]; Acinetobacter calcoaceticus IFO 13006, medium TSA
  Minimum inhibitory concentration: 25 µg/mL
[2]; [22]
  Minimum inhibitory concentration: >100 µg/mL
Candida albicans TA; [23]
  Minimum inhibitory concentration: >100 µg/mL
[3]; Citrobacter freundii IFO 12681, medium TSA
  Minimum inhibitory concentration: 1.56 µg/mL
[4]; [25]
  Minimum inhibitory concentration: 0.78 µg/mL
[5]; Enterobacter cloacae IFO 12937, medium TSA
  Minimum inhibitory concentration: 50 µg/mL
[6]; [27]
  Minimum inhibitory concentration: 0.78 µg/mL
Escherichia coli O—111
  Minimum inhibitory concentration: 0.2 µg/mL
Escherichia coli T-7; medium TSA
  Minimum inhibitory concentration: >100 µg/mL
Klebsiella pneumoniae DT; [28]
  Minimum inhibitory concentration: 0.2 µg/mL
[7]; Proteus mirabilis IFO 3849, medium TSA
  Minimum inhibitory concentration: 0.78 µg/mL
[8]; Proteus morganii IFO 3168, medium TSA
  Minimum inhibitory concentration: 12.5 µg/mL
[9]; Proteus vulgaris IFO 3988, medium TSA
  Minimum inhibitory concentration: <0.1 µg/mL
[10]; Pseudomonas aeruginosa IFO 3455, medium TSA
  Minimum inhibitory concentration: 6.25 µg/mL
[11]; Pseudomonas aeruginosa U 31, medium TSA
  Minimum inhibitory concentration: >100 µg/mL
[12]; Serratia marcescens IFO 12648, medium TSA
  Minimum inhibitory concentration: 1.56 µg/mL
[13]; Staphylococcus aureus 1840, medium TSA
  Minimum inhibitory concentration: 25 µg/mL
[14]; [36]
  Minimum inhibitory concentration: 6.25 µg/mL
[15]; [37]
  Minimum inhibitory concentration: 6.25 µg/mL
[15]; [38]
  Minimum inhibitory concentration: 6.25 µg/mL
[16]; Streptococcus faecium IFO 3128, medium B—TSA
  Minimum inhibitory concentration: >100 µg/mL
[17]; [40]
  Minimum inhibitory concentration: 25 µg/mL
[18]; [41]
  Minimum inhibitory concentration: 6.25 µg/mL
[19]; [42]
  Minimum inhibitory concentration: 3.13 µg/mL
[20]; [43]
  Minimum inhibitory concentration: 3.13 µg/mL

Reference: patent EP0021678B1, “1-Sulpho-2-oxoazetidine derivatives, their production and pharmaceutical compositions thereof” (Takeda Chemical Industries, Ltd., priority 1979, dated 1981)
